# Patent publication US20230404998A1, “Combination Therapies for Treating Cancer” (ASCENTAGE PHARMA (SUZHOU) CO., LTD., priority 2020, published 2023)
# Assays:
# Details in all cases: read-out: Anti-proliferation (IC50)
# [1] = target: BaF3(Bcr-Abl) T315I-F359V (Homo sapiens, UniProt P00519, T315I/F359V, cells depend on it)
# Protocol: (§1) The anti-proliferative effect was determined by a water-soluble tetrazolium (WST)-based assay using Cell Counting Kit-8 (CCK-8, #D3100L4057, Shanghai life ilab bio technology co., LTD, China). Cells were seeded in 96-well plates and treated with different concentrations of test articles. […] Each treatment was tested in triplicates. The plate was then cultured at 37° C. with 5% CO2 for 72 hours. At the end of treatments, 20 μl/well of CCK-8 reagent was directly added to each wells. The plate was then incubated at 37° C. with 5% CO2 for 2-4 h. The OD value was detected at 450 nm on a microplate reader (SpectraMax I3X, Molecular Devices, US). IC50 values were calculated with Graphpad Prism 7.0 software using nonlinear regression (curve fitting) type data analysis. For combination effect assay, the cells viability was normalized using the mean OD value of triplicated wells for the single agent control.
# BaF3(Bcr-Abl) E255K = BaF3(Bcr-Abl) E255K (Homo sapiens, UniProt P00519, E255K, cells depend on it)
# Protocol: as §1
# [2] = target: BaF3(Bcr-Abl) T315I-F317L (Homo sapiens, UniProt P00519, T315I/F317L, cells depend on it)
# Protocol: as §1
# BaF3(Bcr-Abl) F311I = BaF3(Bcr-Abl) F311I (Homo sapiens, UniProt P00519, F311I, cells depend on it)
# Protocol: as §1
# BaF3(Bcr-Abl) F317L = BaF3(Bcr-Abl) F317L (Homo sapiens, UniProt P00519, F317L, cells depend on it)
# Protocol: as §1
# BaF3(Bcr-Abl) T3151 = BaF3(Bcr-Abl) T3151 (Homo sapiens, UniProt P00519, T315I, cells depend on it)
# Protocol: as §1
# [3] = target: BaF3(Bcr-Abl) F317L-M351T (Homo sapiens, UniProt P00519, F317L/M351T, cells depend on it)
# Protocol: as §1
# BaF3(Bcr-Abl) V299L-F39V = BaF3(Bcr-Abl) V299L-F39V (Homo sapiens, UniProt P00519, V299L/F359V, cells depend on it)
# Protocol: as §1
# BaF3(Bcr-Abl) M244V = BaF3(Bcr-Abl) M244V (Homo sapiens, UniProt P00519, M244V, cells depend on it)
# Protocol: as §1
# BaF3(Bcr-Abl) 7253H = BaF3(Bcr-Abl) 7253H (Homo sapiens, UniProt P00519, Y253H, cells depend on it)
# Protocol: as §1
# BaF3(Bcr-Abl) T315M = BaF3(Bcr-Abl) T315M (Homo sapiens, UniProt P00519, T315M, cells depend on it)
# Protocol: as §1
# BaF3(Bcr-Abl) G250E = BaF3(Bcr-Abl) G250E (Homo sapiens, UniProt P00519, G250E, cells depend on it)
# Protocol: as §1
# BaF3(Bcr-Abl) E459L = BaF3(Bcr-Abl) E459L (Homo sapiens, UniProt P00519, cells depend on it, form not given)
# Protocol: as §1
# [4] = target: BaF3(Bcr-Abl) T315I-M351T (Homo sapiens, UniProt P00519, T315I/M351T, cells depend on it)
# Protocol: as §1
# [5] = target: BaF3(Bcr-Abl) Y253H-F359V (Homo sapiens, UniProt P00519, Y253H/F359V, cells depend on it)
# Protocol: as §1
# [6] = target: BaF3(Bcr-Abl) T315I-H396R (Homo sapiens, UniProt P00519, T315I/H396R, cells depend on it)
# Protocol: as §1
# BaF3(Bcr-Abl) M351T = BaF3(Bcr-Abl) M351T (Homo sapiens, UniProt P00519, M351T, cells depend on it)
# Protocol: as §1
# BaF3(Bcr-Abl) T315I-255K = BaF3(Bcr-Abl) T315I-255K (Homo sapiens, UniProt P00519, E255K/T315I, cells depend on it)
# Protocol: as §1
# BaF3(Bcr-Abl) E453K = BaF3(Bcr-Abl) E453K (Homo sapiens, UniProt P00519, E453K, cells depend on it)
# Protocol: as §1
# BaF3(Bcr-Abl) Wild-type = BaF3(Bcr-Abl) Wild-type (Homo sapiens, UniProt P00519)
# Protocol: as §1
# [7] = target: BaF3(Bcr-Abl) G250E-V299L (Homo sapiens, UniProt P00519, G250E/V299L, cells depend on it)
# Protocol: as §1
# [8] = target: BaF3(Bcr-Abl) T316I-M244V (Homo sapiens, UniProt P00519, M244V/T315I, cells depend on it)
# Protocol: as §1
# [9] = target: BaF3(Bcr-Abl) T315I-E255V (Homo sapiens, UniProt P00519, E255V/T315I, cells depend on it)
# Protocol: as §1
# [10] = target: BaF3(Bcr-Abl) Y253H-E255V (Homo sapiens, UniProt P00519, Y253H/E255V, cells depend on it)
# Protocol: as §1
# BaF3(Bcr-Abl) V299L = BaF3(Bcr-Abl) V299L (Homo sapiens, UniProt P00519, V299L, cells depend on it)
# Protocol: as §1
# BaF3(Bcr-Abl) E255V = BaF3(Bcr-Abl) E255V (Homo sapiens, UniProt P00519, E255V, cells depend on it)
# Protocol: as §1
structure (smiles),measurement,setting,value
"Cc1ccc(C(=O)Nc2ccc(CN3CCN(C)CC3)c(C(F)(F)F)c2)cc1C#Cc1cnc2[nH]ncc2c1 [HQP1351, 3-(2-(1H-pyrazolo[3,4-b]pyridin-5-yl)ethynyl)-4-methyl-N-(4-((4-methylpiperazin-1-yl)methyl)-3-(trifluoromethyl)phenyl)-benzamide]",GI50,[1],20 ± 10 nM
same,GI50,BaF3(Bcr-Abl) E255K,22 ± 13 nM
same,GI50,[2],117 ± 23 nM
same,GI50,BaF3(Bcr-Abl) F311I,23 ± 13 nM
same,GI50,BaF3(Bcr-Abl) F317L,8 ± 3 nM
same,GI50,BaF3(Bcr-Abl) T3151,24 ± 10 nM
same,GI50,[3],32 ± 25 nM
same,GI50,BaF3(Bcr-Abl) V299L-F39V,32 ± 4 nM
same,GI50,BaF3(Bcr-Abl) M244V,41 ± 8 nM
same,GI50,BaF3(Bcr-Abl) 7253H,7 ± 1 nM
same,GI50,BaF3(Bcr-Abl) T315M,217 ± 131 nM
same,GI50,BaF3(Bcr-Abl) G250E,29 ± 4 nM
same,GI50,BaF3(Bcr-Abl) E459L,106 nM
same,GI50,[4],67 ± 44 nM
same,GI50,[5],311 ± 35 nM
same,GI50,[6],79 ± 54 nM
same,GI50,BaF3(Bcr-Abl) M351T,9 ± 1 nM
same,GI50,BaF3(Bcr-Abl) T315I-255K,40 ± 5 nM
same,GI50,BaF3(Bcr-Abl) E453K,3 nM
same,GI50,BaF3(Bcr-Abl) Wild-type,6 nM
same,GI50,[7],14 ± 2 nM
same,GI50,[8],76 ± 53 nM
same,GI50,[9],26 ± 11 nM
same,GI50,[10],122 nM
same,GI50,BaF3(Bcr-Abl) V299L,8 ± 4 nM
same,GI50,BaF3(Bcr-Abl) E255V,27 ± 11 nM
